Assay results: the NIST ThermoML archive (doi:10.1021/je050089u)

Experiment: excess molar enthalpy (molar enthalpy of mixing); xn = mol fraction of the nth substance listed
Details: Fluid (supercritical or subcritical phases)

COC(=O)OC [dimethyl carbonate] + O=C=O
excess molar enthalpy [kcal/mol]
Details | 303.15 K | 308.15 K
5000 kPa, x2 = 0.1537 | – | -0.47
5000 kPa, x2 = 0.2239 | – | -0.66
5000 kPa, x2 = 0.2901 | – | -0.855
5000 kPa, x2 = 0.412 | – | -1.2
5000 kPa, x2 = 0.4682 | – | -1.36
5000 kPa, x2 = 0.5215 | – | -1.49
5000 kPa, x2 = 0.6205 | – | -1.73
5000 kPa, x2 = 0.7103 | – | -1.93
5000 kPa, x2 = 0.7189 | – | -1.93
5000 kPa, x2 = 0.7273 | – | -1.88
5000 kPa, x2 = 0.7923 | – | -1.4
5000 kPa, x2 = 0.8674 | – | -0.854
5000 kPa, x2 = 0.9364 | – | -0.391
5000 kPa, x2 = 0.9877 | – | -0.00526
5000 kPa, x2 = 0.9939 | – | 0.0268
5500 kPa, x2 = 0.1547 | – | -0.44
5500 kPa, x2 = 0.2917 | – | -0.836
5500 kPa, x2 = 0.3544 | – | -1.02
5500 kPa, x2 = 0.4138 | – | -1.16
5500 kPa, x2 = 0.47 | – | -1.31
5500 kPa, x2 = 0.5234 | – | -1.45
5500 kPa, x2 = 0.574 | – | -1.57
5500 kPa, x2 = 0.6222 | – | -1.69
5500 kPa, x2 = 0.6681 | – | -1.78
5500 kPa, x2 = 0.7119 | – | -1.89
5500 kPa, x2 = 0.7536 | – | -1.94
5500 kPa, x2 = 0.7698 | – | -1.96
5500 kPa, x2 = 0.7935 | – | -1.79
5500 kPa, x2 = 0.8317 | – | -1.46
5500 kPa, x2 = 0.8682 | – | -1.12
5500 kPa, x2 = 0.9368 | – | -0.498
6000 kPa, x2 = 0.1556 | – | -0.426
6000 kPa, x2 = 0.2931 | – | -0.79
6000 kPa, x2 = 0.4154 | – | -1.12
6000 kPa, x2 = 0.4717 | – | -1.25
6000 kPa, x2 = 0.5757 | – | -1.5
6000 kPa, x2 = 0.6238 | – | -1.6
6000 kPa, x2 = 0.7132 | – | -1.77
6000 kPa, x2 = 0.7549 | – | -1.84
6000 kPa, x2 = 0.7946 | – | -1.91
6000 kPa, x2 = 0.7947 | -1.9 | –
6000 kPa, x2 = 0.8326 | – | -1.93
6000 kPa, x2 = 0.8327 | -1.93 | –
6000 kPa, x2 = 0.869 | – | -1.5
6000 kPa, x2 = 0.8691 | -1.96 | –
6000 kPa, x2 = 0.8901 | -1.95 | –
6000 kPa, x2 = 0.897 | -1.94 | –
6000 kPa, x2 = 0.9039 | -1.82 | –
6000 kPa, x2 = 0.9372 | -1.18 | -0.715
6000 kPa, x2 = 0.9692 | – | -0.276
6000 kPa, x2 = 0.9693 | -0.547 | –
6500 kPa, x2 = 0.0807 | – | -0.219
6500 kPa, x2 = 0.1564 | – | -0.404
6500 kPa, x2 = 0.2275 | – | -0.582
6500 kPa, x2 = 0.2944 | – | -0.751
6500 kPa, x2 = 0.3574 | – | -0.928
6500 kPa, x2 = 0.4169 | – | -1.05
6500 kPa, x2 = 0.4733 | – | -1.2
6500 kPa, x2 = 0.5266 | – | -1.31
6500 kPa, x2 = 0.5772 | – | -1.41
6500 kPa, x2 = 0.6253 | – | -1.52
6500 kPa, x2 = 0.671 | – | -1.61
6500 kPa, x2 = 0.7145 | – | -1.67
6500 kPa, x2 = 0.756 | – | -1.75
6500 kPa, x2 = 0.7956 | – | -1.8
6500 kPa, x2 = 0.8335 | – | -1.83
6500 kPa, x2 = 0.8697 | – | -1.85
6500 kPa, x2 = 0.8837 | – | -1.84
6500 kPa, x2 = 0.9044 | – | -1.61
6500 kPa, x2 = 0.9376 | – | -1.02
6500 kPa, x2 = 0.9694 | – | -0.47
7000 kPa, x2 = 0.0812 | – | -0.208
7000 kPa, x2 = 0.1572 | – | -0.389
7000 kPa, x2 = 0.2285 | – | -0.551
7000 kPa, x2 = 0.2956 | – | -0.722
7000 kPa, x2 = 0.3587 | – | -0.859
7000 kPa, x2 = 0.4184 | – | -1
7000 kPa, x2 = 0.4747 | – | -1.11
7000 kPa, x2 = 0.528 | – | -1.23
7000 kPa, x2 = 0.5786 | – | -1.32
7000 kPa, x2 = 0.6266 | – | -1.42
7000 kPa, x2 = 0.6723 | – | -1.49
7000 kPa, x2 = 0.7157 | – | -1.56
7000 kPa, x2 = 0.7571 | – | -1.62
7000 kPa, x2 = 0.7966 | – | -1.65
7000 kPa, x2 = 0.8343 | – | -1.69
7000 kPa, x2 = 0.8703 | – | -1.71
7000 kPa, x2 = 0.9049 | – | -1.68
7000 kPa, x2 = 0.9249 | – | -1.66
7000 kPa, x2 = 0.9443 | – | -1.35
7000 kPa, x2 = 0.9507 | – | -1.24
7000 kPa, x2 = 0.9697 | – | -0.767
7500 kPa, x2 = 0.0816 | – | -0.178
7500 kPa, x2 = 0.1579 | – | -0.338
7500 kPa, x2 = 0.2294 | – | -0.499
7500 kPa, x2 = 0.2967 | – | -0.633
7500 kPa, x2 = 0.36 | – | -0.771
7500 kPa, x2 = 0.4197 | – | -0.885
7500 kPa, x2 = 0.476 | – | -0.996
7500 kPa, x2 = 0.5294 | – | -1.09
7500 kPa, x2 = 0.5799 | – | -1.17
7500 kPa, x2 = 0.6279 | – | -1.24
7500 kPa, x2 = 0.6734 | – | -1.32
7500 kPa, x2 = 0.7168 | – | -1.37
7500 kPa, x2 = 0.7581 | – | -1.42
7500 kPa, x2 = 0.7974 | – | -1.44
7500 kPa, x2 = 0.835 | – | -1.46
7500 kPa, x2 = 0.871 | – | -1.47
7500 kPa, x2 = 0.9053 | – | -1.48
7500 kPa, x2 = 0.9382 | – | -1.42
7500 kPa, x2 = 0.9698 | – | -1.24
7500 kPa, x2 = 0.9759 | – | -1.02
